pIC50: −log10 of the molar value.
Each molecule was assayed on cellules L 1210 (Leucémie murine) (assay: In vitro cytotoxicity, Microculture Tetrazolium Assay (cell growth inhibition)). Conditions: Mus musculus, L1210, L 1210 cells in RPMI 1640 with 10 % fetal calf serum, read-out: IC₅₀, concentration inhibant à 50 % la croissance cellulaire.
Assay type: cell-based
Protocol: Les cellules L 1210 (Leucémie murine) sont cultivées dans du RPMI 1640 complémenté avec 10 % de sérum de veau foetal, 2 mM de L-glutamine, 100 unités/ml de pénicilline, 100 µg/ml de streptomycine et 10 mM d'Hepes (pH : 7,4). L'inhibition de la croissance cellulaire est mesurée selon le "Microculture Tetrazolium Assay" décrit par M. ALLEY et coll. (Cancer Res., 48, 589-601, 1988).
Les résultats de ce test sont exprimés en IC₅₀, concentration inhibant à 50 % la croissance cellulaire. Le produit de référence utilisé est le BCNU, agent alkylant très actif utilisé en clinique.

Structure (SMILES)	pIC50
O=NN(CCCl)C(=O)NCCCl [BCNU, reference compound]	5.19
CC(=O)OC1C#C/C=C\C#CCCC1 (stereo not drawn) [exemple 2, 7-Acétoxy-1,5-diyne-3-cyclodécène]	5.25
O=C1C#Cc2ccccc2C#CCCC1 [exemple 7, 7-Oxo-benzo[c]cyclodéca-1,5-diyne]	6.30
